Consider 2 compounds from article PMC7762498, “Demethoxycurcumin analogue DMC-BH exhibits potent anticancer effects on orthotopic glioblastomas” (Aging (Albany NY), 2020).

The term IC50 denotes the point on the concentration scale where inhibition reaches its midpoint. Higher therefore signals a need for much substance. The term Kp denotes tissue or fluid exposure divided by exposure in the circulation.

A short description of series [1]: BBB penetrability (brain-to-plasma AUC ratio). In kind it is in vivo. The text has this: To determine whether DMC-BH inhibits the growth of glioma in the brain, we assessed its octanol-water partition coefficients and BBB penetrability. The hydrophobic parameters (logP) of DMC-BH and DMC were estimated under physiological as well as in acidic and basic conditions. The logP values for DMC-BH were negative at pH 2.5 and pH 9.0, as it was an amphoteric compound. At low pH or high pH conditions, DMC-BH occurred in the form of salts, and its logP values became negative due to better solubility.
Figure 2 Octanol-water partition coefficients (logP) and BBB penetrability of DMC-BH. (A) The logP was defined as log(Coctanol/Cwater). The amount of the compound in the water phase was determined spectrophotometrically, and the amount in the octanol phase was obtained by subtracting the supernatant concentration from the total concentration. (B) The BBB penetrability was defined as a brain-to-plasma AUC(time point) ratio. Values are expressed as the means ± SEM of 3 independent experiments.

Series [2] concerns U87 cell line. Put plainly: Subcutaneous human glioma xenograft in SCID mice. It is filed as in vivo. The conditions noted are these: for tumor volume at day 21: U87 subcutaneous xenograft, 20 mg/kg/day intraperitoneal, 21 days, control 1514 mm^3; for median survival: U87 xenograft, 20 mg/kg, control 15 days. The text has this: To examine the anti-glioma effects of DMC-BH in vivo, a human glioma-SCID (severe combined immunodeficient) mouse model was established using the U87 cell line. […] The tumor volumes for the control, TMZ, DMC, and DMC-BH mice at day 21 were 1514 mm^3, 587 mm^3, 876 mm^3 and 570 mm^3, respectively. […] As shown in the Kaplan-Meier curves, the median survival was 15, 27, 19 and 35 days for the control, TMZ, DMC and DMC-BH groups, respectively (Figure 3B).
Figure 3 DMC-BH inhibited U87 glioma cell growth in vivo. Subcutaneous tumors generated from U87 cells were allowed to reach a volume of 150-200 mm^3 and were treated with 20 mg/kg TMZ, DMC or DMC-BH for 21 days. (A) Tumor volume was recorded according to treatment group at the indicated day. (B) The survival of brain tumor-bearing mice was recorded and represented in a Kaplan-Meier plot.
1-[4-Hydroxy-3-(pyrrolidin-1-ylmethyl) phenyl]-7-(4-hydroxy-3-methoxyphenyl) hepta-1,6-diene-3,5-dione, named DMC-BH, was constructed by our lab. DMC was obtained from Sigma-Aldrich (St. Louis, MO). To test the anti-glioma effect of DMC-BH in vivo, a xenograft model of human glioma was established. Four-week-old male SCID mice were purchased from Vital River Laboratory Animal Technology Co., Ltd. (Beijing, China). After a 1-week acclimatization, SCID mice were injected subcutaneously in the right flank with 6 × 10^5 […] glioma cells resuspended in 50 μL DMEM media. Treatment was initiated when the subcutaneous tumors reached an average size of 150 mm^3 to 200 mm^3. Mice received intraperitoneal injection of DMC (20 mg/kg/day), DMC-BH (20 mg/kg/day), TMZ (20 mg/kg/day) or vehicle as a control. Tumor diameter was measured every 2 days with calipers, and the tumor volume was calculated (length × width × height × 0.5). All experiments were carried out in keeping with the procedures and protocols of the Animal Ethics Committee of the First People's Hospital of Kunshan.
(A xenograft is tissue or cells of one species grown in another, often human tumour cells in immunodeficient mice.)

In series [3] the test system is p-Akt. Description: Western blot of orthotopic xenograft tissue, p-Akt. The conditions noted are these: U87 orthotopic xenografts, versus control. It is filed as in vivo, mice. From the text:
The PI3K/Akt/mTOR signaling pathway is over activated in glioma tissues, and this increased activation is closely related to malignancy and chemoresistance of gliomas. Previous research reported that among its potential anti-tumor actions in breast cancer, DMC targeted multiple AMPK downstream pathways involving dephosphorylation of Akt and mTOR inhibition. Because DMC-BH is a DMC derivative, we further investigated the inhibitory effects of DMC-BH on gliomas by targeting the Akt/mTOR signaling pathway. We evaluated the expression of p-Akt, and p-mTOR in tumor tissues after DMC-BH treatment (Figure 6A). […] No significant changes were found in total Akt and mTOR expression. Moreover, the expression of p-Akt and p-mTOR in the DMC group was decreased with that in the control group (P < 0.05).
Figure 6 The effects of DMC-BH and DMC on the Akt/mTOR signaling pathway in U87 orthotopic glioblastoma xenografts. (A) Total protein was extracted from U87 orthotopic glioblastoma xenografts. Then p-Akt and p-mTOR protein expression was detected by Western blot. (B) The column chart illustrates the relative expression levels of these proteins.

For series [4], the system named is U251 glioma cells. Put plainly: MTT cell viability assay, U251. It is filed as cell-based. The following applies: Homo sapiens, U-251, 72 hours. The procedure: (§1) To investigate the cytotoxicity of DMC-BH on glioma cells (Figure 1A), we used an MTT assay to assess viability changes in SHG-44, C6, U251, U87, A172 and primary glioma cells treated with various concentrations of DMC-BH for 24, 48 or 72 hours (Figure 1B–1H). […] U251 and SHG-44 cells were more sensitive to DMC-BH. We then used the human glial cell line, HEB, to evaluate the toxicity of DMC-BH in normal cells. […] DMC-BH was not toxic to normal cells.
(§2) The human GBM U87-luc cell line was purchased from the Shanghai Sunbio Medical Biotechnology Co., Ltd. (Shanghai, China). Cells were cultured in DMEM supplemented with 10% fetal bovine serum (FBS) and maintained in an incubator at 37° C and 5% CO2. After cells were routinely passaged at 2- to 3-day intervals, animal experiments were carried out when the cells entered exponential growth phase. Rat C6, human SHG-44, U87, A172 and U251 glioma cells were obtained from the Shanghai Institute of Cell Biology, Chinese Academy of Sciences (Shanghai, China). Primary glioma cells were preserved by our laboratory from previous studies. […]
(§3) Glioblastoma cells were seeded into 96-well plates and exposed to vehicle (PBS) or different concentrations of DMC-BH for 24, 48 or 72 hours. Cell viability was measured using an MTT assay and was expressed as a ratio to the absorbance value of the control cells at 570 nm.
(In general: Tetrazolium assays rely on reduction of a dye to a coloured formazan, in cell work by metabolically active cells.)

For series [5], the system named is A172 glioma cells. Put plainly: MTT cell viability assay, A172. It is filed as cell-based. The conditions noted are these: Homo sapiens, A 172, 72 hours. The method, then:
as §1, §2, §3

Series [6] deals with primary glioma cells. Put plainly: MTT cell viability assay, primary glioma cells. The following applies: 72 h. It is filed as cell-based. The method, then: as §1, §2, §3
The test system of series [7] is human glial cell line, HEB. Put plainly: MTT assay on normal glial cells. In kind it is cell-based. The following applies: 24 hours of incubation with 32 μM. The procedure:
as §1, §3

Consider “Demethoxycurcumin [DMC, reference compound]”, for which the “brain-to-plasma AUC(4h) ratio” value in series [1] was determined as 0.56. In series [2], the “tumor volume at day 21” value was 876 mm^3 and the median survival was determined as 19 days. Also, the “p-Akt expression in tumor tissues” value in series [3] is given as “decreased”.

As for `COc1cc(C=CC(=O)CC(=O)C=Cc2ccc(O)c(CN3CCCC3)c2)ccc1O` [DMC-BH, 1-[4-Hydroxy-3-(pyrrolidin-1-ylmethyl)phenyl]-7-(4-hydroxy-3-methoxyphenyl) hepta-1,6-diene-3,5-dione], the IC50 in series [4] stood at 2.52 µM; in series [5], 5.68 µM; in series [6] (primary glioma cells sample 1, 72 hours), 8.05 µM; in series [6] (primary glioma cells sample 2, 72 hours) it was 4.61 µM. Further, the “viability of HEB cells” value in series [7] is given as “not reduced markedly”. Moreover, in series [1] (brain and plasma), the Kp at 4 h came to 4.6. The “tumor volume at day 21” value in series [2] is given as 570 mm^3. Besides, the median survival in series [2] turned out to be 35 days. Moreover, the “p-Akt expression in tumor tissues” value in series [3] is “significantly decreased”.
